{"source": "patent US8987200B2", "about": "“Polycationic calcium modulator peptides for the treatment of hyperparathyroidism and hypercalcemic disorders” (KAI Pharmaceuticals, Inc., priority 2006, dated 2015)", "key": {"[1]": {"test_system": "anesthetized rats", "test": "3 hour infusion study of KAI-1633 in anesthetized rats, with steady state plasma concentration by ELISA (Example 14)", "assay_type": "in vivo, rat", "conditions": "9 mg/kg iv infusion for 3 hours", "source_text": "The study was designed to determine the contribution of the disulfide bond and/or cysteine residue on the calcium modulator peptide to the reductions in total calcium and plasma PTH.\nControl animals (n=4) were infused with saline."}, "[2]": {"conditions": "rat, plasma"}, "[3]": {"test": "In vitro activity of free-thiol calcium modulating peptide compared with KAI-1455", "conditions": "tested in vitro, relative to KAI-1455"}}, "note": "No end group written: not given here."}
{"molecule": "EAVSLKPTGGYGRKKRRQRRR-NH2 [KAI-1633]", "values": [{"measurement": "Plasma PTH levels", "setting": "[1]", "value": "did not show a reduction"}, {"measurement": "Total calcium", "setting": "[1]", "value": "did not show a reduction"}]}
{"molecule": "CC[C@H](C)[C@H](NC(=O)[C@@H]1CCCN1C(=O)[C@H](C)NC(=O)[C@H](CC(=O)O)NC(=O)[C@H](Cc1c[nH]cn1)NC(=O)[C@@H](N)CSSC[C@H](N)C(=O)N[C@@H](Cc1ccc(O)cc1)C(=O)NCC(=O)N[C@@H](CCCNC(=N)N)C(=O)N[C@@H](CCCCN)C(=O)N[C@@H](CCCCN)C(=O)N[C@@H](CCCNC(=N)N)C(=O)N[C@@H](CCCNC(=N)N)C(=O)N[C@@H](CCC(N)=O)C(=O)N[C@@H](CCCNC(=N)N)C(=O)N[C@@H](CCCNC(=N)N)C(=O)N[C@@H](CCCNC(=N)N)C(=O)O)C(=O)NCC(=O)N[C@@H](Cc1ccc(O)cc1)C(=O)N[C@@H](CC(=O)O)C(=O)O", "note": "[KP-9706]", "values": [{"measurement": "half-life", "setting": "[2]", "value": "~5", "unit": "min"}]}
{"molecule": "CC(C)C[C@H](NC(=O)[C@H](CO)NC(=O)CNC(=O)[C@H](CC(C)C)NC(=O)[C@H](CCC(=O)O)NC(=O)[C@H](Cc1ccc(O)cc1)NC(=O)[C@H](CO)NC(=O)[C@H](CC(N)=O)NC(=O)[C@H](Cc1ccccc1)NC(=O)[C@H](CO)NC(=O)[C@@H](N)CSSC[C@H](N)C(=O)N[C@@H](Cc1ccc(O)cc1)C(=O)NCC(=O)N[C@@H](CCCNC(=N)N)C(=O)N[C@@H](CCCCN)C(=O)N[C@@H](CCCCN)C(=O)N[C@@H](CCCNC(=N)N)C(=O)N[C@@H](CCCNC(=N)N)C(=O)N[C@@H](CCC(N)=O)C(=O)N[C@@H](CCCNC(=N)N)C(=O)N[C@@H](CCCNC(=N)N)C(=O)N[C@@H](CCCNC(=N)N)C(=O)O)C(=O)O", "note": "[KP-9803]", "values": [{"measurement": "half-life", "setting": "[2]", "value": "~10", "unit": "min"}]}
{"molecule": "Ac-CYGRKKRRQRRR-NH2 [SEQ ID NO:5, capped TAT-derived peptide having an N-terminal cysteine residue containing a free thiol]", "values": [{"measurement": "Activity in vitro", "setting": "[3]", "value": "comparable to KAI-1455"}]}
